Laboratory results published in US20230331663A1, “SMALL MOLECULE NICOTINAMIDE ADENINE DINUCLEOTIDE MODULATORS” (THE CLEVELAND CLINIC FOUNDATION, priority 2020, published 2023).
Entries after “also recorded” stand apart in the source; their conditions may differ.

Tests used:
[1] = system: Human bone marrow cells from healthy volunteers; assay: Human HSPC self renewal, methyl cellulose colony re-plating; format: cell-based; details: colonies counted after eight days and re-plated until control HSPCs exhausted
Method: The human bone marrow cells from healthy volunteers were grown in methyl cellulose in the presence and absence of the compound 1-17 and colony number were counted after eight days in culture and re-plated till control HSPCs were completely exhausted. A. The number of colony and B. the total cellular output.
Human bone marrow cells from healthy volunteers were grown in methyl cellulose in the presence and absence of the compound 1-17 and colony number were counted after eight days in culture and re-plated till control HSPCs were completely exhausted.

[2] = biological target: T1, recombinant human CD38 full length protein (Homo sapiens, UniProt P28907); assay: β-NAD+ degradation assay (HPLC, C18); format: biochemical; details: purified full length wild type recombinant CD38 incubated with NAD+
T1 construct: The recombinant human CD38 full length protein UniProtKB - P28907 (CD38_HUMAN); His-tag (inferred from the pET28a vector and IMAC purification); made in house
T1 sequence (P28907 1-300): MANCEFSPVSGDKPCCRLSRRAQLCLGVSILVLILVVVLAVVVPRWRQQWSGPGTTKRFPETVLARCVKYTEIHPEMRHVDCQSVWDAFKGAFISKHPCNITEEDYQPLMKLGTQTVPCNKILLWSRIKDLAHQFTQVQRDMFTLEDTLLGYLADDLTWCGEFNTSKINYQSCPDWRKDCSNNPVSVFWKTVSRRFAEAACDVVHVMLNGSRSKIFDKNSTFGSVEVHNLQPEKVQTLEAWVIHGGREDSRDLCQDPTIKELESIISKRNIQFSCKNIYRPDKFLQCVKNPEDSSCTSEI
Method: FIGS. 3A-3D provides graphs showing Compound 1-17 inhibits CD38 and protects NAD degradation in vitro. Full length wild type recombinant CD38 was expressed and purified and incubated with NAD and high-performance liquid chromatographic assay using C18 were used to quantify NAD degradation. A. chromatogram with vehicle, B. CD38 incubation for 4 hours at room temperature C.
The recombinant human CD38 full length protein UniProtKB - P28907 (CD38_HUMAN) was cloned into pET28a and purified using IMAC column followed by gel filtration on SephacrylS200. The purified protein (10 µg/ml) was incubated with varying amount of NAD+ in assay buffer ([…], 5 mM MgCl2 at pH 7.0) at 25° C. for 3 hours, reaction was stopped by heat inactivation followed by acetone precipitation of protein the supernatant was vacuum dried and dissolved in water and loaded onto reverse phase C18 column and eluted with a gradient of 0-25% of acetonitrile in water.
Full length wild type recombinant CD38 was expressed and purified and incubated with NAD+ and high-performance liquid chromatographic assay using C18 were used to quantify NAD+ degradation.

[3] = system: undifferentiated normal human fibroblast (NHFB); assay: Cell proliferation assay, fibroblast life span; format: cell-based
Method: FIGS. 4A and 4B provide graphs showing NAD protection by compound 1-17 extend life span of undifferentiated normal human fibroblast (NHFB) under in-vitro cell culture conditions. NHFB were either A. young (<8 doubling time) or B. old (>10 doublings) cell cultures were treated with indicated amount of 1-17 in complete growth media.
NHFB were either young (<8 doubling time) (FIG. 4A) or old (>10 doublings) (FIG. 4B). Cell cultures were treated with the indicated amount of 1-17 in complete growth media.

[4] = system: murine bone marrow cells from C57bl6 mice; assay: Mouse HSPC self renewal, methyl cellulose colony re-plating; format: cell-based
Method: FIGS. 5A and 5B provide graphs showing Treatment of 1-17 to murine bone marrow expands the colony forming hematopoietic stem cells. The murine bone marrow cells from C57BL6 mice were grown in methyl cellulose in the presence and absence of the compound 1-17 and colony number were counted every week and re-plated. A. The number of colony and B. the total cellular output.
The murine bone marrow cells from C57bl6 mice were grown in methyl cellulose in the presence and absence of compound 1-17. Colony numbers were counted every week and re-plated.
FIG. 5 provides graphs showing that treatment with compound 1-17 increases mouse HSPC self-renewal. […] Additionally, as shown in FIG. 5B directed to total cellular output, cells also proliferate far longer than the vehicle control, maintaining population for an average of 1 to 2 passes after control.

[5] = system: Total Human bone marrow, isolated CD34+ HSPCs, LTC-IC; assay: Stem cell function, total cellular output in culture; format: cell-based
Method: Total Human bone marrow A, isolated CD34+ HSPCs B, and long-term culture initiating hematopoietic cells (LTC-IC) C, were grown in the presence and absence of the compound 1-17 and the total cellular output was determined. Compound 1-17 is synergistic with NAD treatment.
Total Human bone marrow, isolated CD34+ HSPCs, and long-term culture initiating hematopoietic cells (LTC-lC), were grown in the presence and absence of compound 1-17 and the total cellular output was determined.

[6] = system: healthy murine bone marrow; assay: Treatment of healthy mice, hematopoiesis; format: in vivo; details: 40 mg/kg
Method: The effects of CD38 inhibitor 1-17 and its analogues on hematopoiesis of healthy murine bone marrow were tested. […] Experiments were conducted to determine whether treatment with compound 1-17 has impact on blood counts and NAD+ levels in cells. The inventors treated 9 mice which were sacrificed at 2, 5 and 12 week and blood counts, marrow morphology and cellularity and bone marrow colony formation per 10^6 cell were determined in colony forming assays.

Structure (SMILES)	colony forming hematopoietic stem and progenitor cells (HSPCs) [1]	inhibition of CD38 NAD+ degradation [2]	doubling time ([3]; NHFB treated with indicated amount of compound)	life span of NHFB in culture ([3]; young (<8 doubling time) or old (>10 doublings) NHFB, complete growth media)	self-renewal of HSPCs in colony numbers and overall cell counts ([4]; mouse bone marrow in methyl cellulose, counted every week and re-plated)	passes for which population is maintained after control ([4]; total cellular output, versus vehicle control)	combination with NAD treatment ([5]; cell culture, total cellular output)	long term hematopoietic stem cells, total cellular output ([5]; total human bone marrow, CD34+ HSPCs, LTC-IC in culture)	efficacy and tolerability of treatment dose [6]
O=C(Nc1cccc2cc(C(F)(F)F)ccc12)c1cc(CCCF)ccc1O [Compound 1-11]	expands the colony forming hematopoietic stem and progenitor cells (HSPCs)	–	–	–	–	–	–	–	–
Cl.NCCc1ccc(O)c(C(=O)Nc2cccc3ccccc23)c1 [Compound 1-17, 5-(2-Aminoethyl)-2-hydroxy-N-(naphthalen-1-yl)benzamide]	expands the colony forming hematopoietic stem and progenitor cells (HSPCs)	inhibits CD38 and protects NAD+ degradation in vitro; also recorded: Dose dependent inhibition of CD38	significantly increased in a dose dependent fashion	extends the life span	markedly increased	1 to 2 passes	synergies with NAD treatment	expands long term hematopoietic stem cells in cell culture	effective and well tolerated
